This is an account of results in patent US10618937B2, “Method of treating Alzheimer's disease” (INDUSTRY-ACADEMIC COOPERATION FOUNDATION GYEONGSANG …, priority 2016, dated 2020).

What all share (type): in vivo
For assay [1], the system named is APP/PS1 model mice. In words: Y-maze test. As to conditions: 45 days after IP administration. The method, then: Male C57BL/6J wild type mice and double transgenic B6.Cg-Tg (APPswe, PSENdE9) 85Dbo Mmjax (APP/PS1) AD-model mice were obtained from Jackson Laboratories (Bar Harbor, Me., USA). The brains of the double transfected mice express Swedish mutation-containing chimeric mouse-human amyloid precursor protein (Mo/HuAPP695swe) and mutant human presenilin 1 protein (PS1-dE9). The mice were fed with an unlimited supply of food and water at an animal breeding ground of a university at a temperature of 23° C., at the relative humidity of 60±10% and in the black and light cycle of 12 h/12 h. When the mice reached 10 months of age, they were transferred to the injection and behavior observation room for 1 week for purification. The maintenance and treatment for mice were performed according to the guidelines of the Animal Ethics Committee (IACUC) issued by Department of Biology, Division of Applied Life Science of Gyeongsang National University in Korea. Experiments according to the present disclosure were conducted according to the guidelines approved by the guidelines of the Animal Ethics Committee (IACUC) issued by Department of Biology, Division of Applied Life Science of Gyeongsang National University in Korea (approval ID: 125). […]
Alteration behavior ratio (%) was calculated as [set of overlapping triplets (consecutive entry into 3 different arms)/total entry−2]×100. […]

Assay [2] relates to APP/PS1 mice. In words: Thioflavin S staining / immunofluorescence analysis of amyloid plaques in brain. As to conditions: IP once every 2.5 days for 45 days. How it is done: Adiponectin receptor-activating novel peptide (5AA1) was IP administered to 10 week old APP/PS1 mice once every 2.5 days for 45 days, and then, to prepare a slide section, the brains of the mice were fixed by transcardial perfusion of ice-cold 4% paraformaldehyde. The brains were fixed in 4% paraformaldehyde for 72 hours, and then, transferred to 20% sucrose and maintained at a temperature of 4° C. for 72 hours. The brains were placed in an optimal cutting temperature (OCT) compound (A.O., USA), frozen in liquid nitrogen, and sectioned into coronal plane (14 μm) in CM 3050C cryostat (Leica, Germany). Pictures of tissue sections were taken on ProbeOn Plus charged slides (Fisher, USA).
Immunofluorescence analysis was performed by using minor modifications of the method described in the existing study (Shah et al., 2014; Shah et al., 2015). Slides containing tissue sections were washed twice with a 0.01 M PBS solution for 15 minutes. Proteinase K was added to the tissue sections, which were then cultured at a temperature of 37° C. for 5 minutes. The tissue sections were then reacted in a blocking solution (5% normal goat serum, 0.3% Triton X-100, PBS) for 1 hour. The slides were reacted overnight with the primary antibody (the same antibody used in the ‘Western blot analysis’) and then reacted with secondary TRITC- or FITC-conjugated antibodies (diluted 1:50 in PBS; Santa Cruz) at room temperature for 90 minutes. The slides were dipped in Prolong Antifade reagent (Molecular Probe, Eugene, Oreg., USA) and stained. All stained slides were analyzed with a confocal laser scanning microscope (Flouview FV 1000). Amyloid plaques were visualized in brain slices after Thioflavin S staining. The brain slices were washed twice with 0.01 M PBS for 10 minutes, and then immersed in fresh 1% Thioflavin S solution at room temperature for 10 minutes. The brain slices were then immersed in 70% ethanol for 5 minutes, then washed twice with water, counterstained with propidium iodide (PI) and covered with cover glass.
Morphological analysis and signals were analyzed with Image J software (open source software provided by the US NIH), and the analysis results were expressed as IOD (Integral Optical Density). The ratio of the amyloid deposit site in the proposed area was also quantified by using Image-J software.

The test system of assay [3] is normal mouse. In words: Morris water maze test in normal (wild type) mice. Particulars: normal mouse treated with peptide, IP. How it is done:
Male C57BL/6J wild type mice and double transgenic B6.Cg-Tg (APPswe, PSENdE9) 85Dbo Mmjax (APP/PS1) AD-model mice were obtained from Jackson Laboratories (Bar Harbor, Me., USA). The brains of the double transfected mice express Swedish mutation-containing chimeric mouse-human amyloid precursor protein (Mo/HuAPP695swe) and mutant human presenilin 1 protein (PS1-dE9). The mice were fed with an unlimited supply of food and water at an animal breeding ground of a university at a temperature of 23° C., at the relative humidity of 60±10% and in the black and light cycle of 12 h/12 h. […]
The Morris Underwater Maze Test System was constructed as a circular water tank with a diameter of 100 cm and a height of 40 cm containing 15.5 cm depth of water (temperature of 23±1° C.) which was opaque with white ink added. […] The delay time for escaping from the water maze (the time to find the hidden escape platform) was calculated for each trial. […] For the probe experiment, the platform was removed, each mouse was allowed to freely swim for 60 seconds, the amount of time the mouse spent in the target quadrant was measured, and the number of platform positions the mouse passed by (where the platform was located during the hidden platform training). […] All data were recorded by using video-tracking software (SMART, Panlab Harward Apparatus, Bioscience Company, Holliston, Mass., USA).

As for “RGPCG (adiponectin receptor-activating peptide) [5AA1]”, the spontaneous alteration entry in assay [1] is on record as “restored”. Besides, the “amyloid β plaque in the cortex and hippocampus of the brain” value in assay [2] is “remarkably reduced”. Besides, the “latency (time to find the hidden escape platform)” value in assay [3] is given as “less than 10 seconds”.
